Test results reported in US9796719B2, “Compounds and pharmaceutical compositions thereof for the treatment of inflammatory disorders” (GALAPAGOS NV, priority 2013, dated 2017).

Legend:
hENPP2 [1] = target: T1, hENPP2 (UniProtKB/SwissProt Sequence ref Q13822) (Homo sapiens (Human), UniProt Q13822); test: FS3 hENPP2 assay (fluorogenic substrate FS-3); type: biochemical; conditions: hENPP2, FS-3 as substrate
Experimental: Compound IC50 values are determined in a fluorescent hENPP2 (UniProtKB/SwissProt Sequence ref Q13822) biochemical assay using the fluorogenic autotaxin substrate FS-3 as substrate. FS-3 is a doubly labeled analog of LPC wherein the fluorophore is quenched through intramolecular energy transfer. Without hENPP2, the emission of the probe is quenched. If the substrate is hydrolyzed by hENPP2, the emission of the probe is not quenched anymore resulting in a fluorescence increase. Inhibition of hENPP2 by compounds will result in a decrease of the signal.
10 μL of a dilution series of compound, starting from 20 μM highest concentration, ⅕ dilution, is added to the wells. hENPP2 is used at a final concentration of 0.4 μg/mL or 0.64 μg/mL (it will be appreciated by the skilled person that the potency read out is independent of the enzyme concentration). The enzyme is diluted in 50 mM Tris-HCl pH 8.0, 250 mM NaCl, 5 mM KCl, 1 mM MgCl2, 1 mM CaCl2, 0.1% fatty acid free BSA in a total volume of 20 μL. Enzyme mixture is added to compounds and the resulting mixture is incubated for 30 min at room temperature under shaking. The reaction is started by the addition of 20 μL of 0.75 μM FS-3 diluted in the same buffer as described above and the mixture is incubated at 30° C. for 30 min. Fluorescence is read on the Envision (Excitation 485 nm, emission 520 nm).

hENPP2 [2] = target: T1, hENPP2; test: LPC hENPP2 assay (choline release, LPC as substrate); type: biochemical
Outline: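 Detection is coupled: choline oxidase produces peroxide, which HRP uses to form quinoneimine dye from TOOS and 4-aminoantipyrine, read at 555 nm. The reaction is stopped with 20 mM EGTA in the developer mix, then incubated 30 min at room temperature; inhibition lowers signal.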

| SMILES | IC50 (hENPP2 [1]) | IC50 (hENPP2 [2]) |
| --- | --- | --- |
| CCc1nc2ccc(N3CCCC(CNC(=O)OC(C)(C)C)C3)nn2c1N(C)c1nc(-c2ccc(F)cc2)cs1 (centres unmarked) [Cpd 100, [1-(2-Ethyl-3-{[4-(4-fluoro-phenyl)-thiazol-2-yl]-methyl-amino}-imidazo[1,2-b]pyridazin-6-yl)-piperidin-3-ylmethyl]-carbamic acid tert-butyl ester] | 0.01 to 25 nM | > 1000 nM |
| CCc1nc2ccc(N3CCN(CC(=O)N4CCCC4)CC3)nn2c1N(C)c1nc(-c2ccc(F)cc2)cs1 [Cpd 55, 2-(4-(2-ethyl-3-((4-(4-fluorophenyl)thiazol-2-yl)(methyl)amino)imidazo[1,2-b]pyridazin-6-yl)piperazin-1-yl)-1-(pyrrolidin-1-yl)ethanone] | 0.01 to 25 nM | 100 to 500 nM |
| CCc1nc2ccc(C3CCN(CC(=O)N4CC(O)C4)CC3)nn2c1N(C)c1cccc(-c2ccc(F)cc2)n1 [Cpd 214, 2-(4-(2-ethyl-3-((6-(4-fluorophenyl)pyridin-2-yl)(methyl)amino)imidazo[1,2-b]pyridazin-6-yl)piperidin-1-yl)-1-(3-hydroxyazetidin-1-yl)ethanone] | 0.01 to 25 nM | 500 to 1000 nM |
| CCc1nc2ccc(N3CC4CN(S(=O)(=O)CCCN5CCOCC5)CC4C3)nn2c1N(C)c1nc(-c2ccc(F)cc2)cs1 (centres unmarked) [Compound 127, N-(2-ethyl-6-(5-(3-morpholinopropylsulfonyl)hexahydropyrrolo[3,4-c]pyrrol-2(1H)-yl)imidazo[1,2-b]pyridazin-3-yl)-4-(4-fluorophenyl)-N-methylthiazol-2-amine] | 0.01 to 25 nM | > 1000 nM |
| CCc1nc2ccc(N3CCN(CC4CCCO4)CC3)nn2c1N(C)c1nc(-c2ccc(F)cc2)cs1 (centres unmarked) [Cpd 48, N-(2-ethyl-6-(4-((tetrahydrofuran-2-yl)methyl)piperazin-1-yl)imidazo[1,2-b]pyridazin-3-yl)-4-(4-fluorophenyl)-N-methylthiazol-2-amine] | 0.01 to 25 nM | 100 to 500 nM |
| CCc1nc2ccc(N3CCC(NS(C)(=O)=O)CC3)nn2c1N(C)c1nc(-c2ccc(F)cc2)cs1 [Cpd 83, N-(1-(2-ethyl-3-((4-(4-fluorophenyl)thiazol-2-yl)(methyl)amino)imidazo[1,2-b]pyridazin-6-yl)piperidin-4-yl)methane-sulfonamide] | 0.01 to 25 nM | > 1000 nM |
| CCc1nc2ccc(N3CCC(C(=O)O)CC3)nn2c1N(C)c1nc(-c2ccc(F)cc2)cs1 [Compound 96, 1-(2-ethyl-3-((4-(4-fluorophenyl)thiazol-2-yl)(methyl)amino)imidazo[1,2-b]pyridazin-6-yl)piperidine-4-carboxylic acid] | 0.01 to 25 nM | > 1000 nM |
| CCc1nc2ccc(N3CCN(CCCO)CC3)nn2c1N(C)c1nc(-c2ccc(F)cc2)cs1 [Cpd 49, 3-(4-(2-ethyl-3-((4-(4-fluorophenyl)thiazol-2-yl)(methyl)amino)imidazo[1,2-b]pyridazin-6-yl)piperazin-1-yl)propan-1-ol] | 0.01 to 25 nM | 500 to 1000 nM |
| CCc1nc2ccc(N3CCC(N4CCC(O)CC4)C3)nn2c1N(C)c1nc(-c2ccc(F)cc2)cs1 (centres unmarked) [Cpd 152, 1-(1-(2-ethyl-3-((4-(4-fluorophenyl)thiazol-2-yl)(methyl)amino)imidazo[1,2-b]pyridazin-6-yl)pyrrolidin-3-yl)piperidin-4-ol] | 0.01 to 25 nM | 500 to 1000 nM |
| CCc1nc2ccc(N3CCC(N4CCOCC4)CC3)nn2c1N(C)c1nc(-c2ccc(F)cc2)cs1 [Cpd 109, N-(2-ethyl-6-(4-morpholino-piperidin-1-yl)imidazo[1,2-b]pyridazin-3-yl)-4-(4-fluorophenyl)-N-methylthiazol-2-amine] | 0.01 to 25 nM | 500 to 1000 nM |
| CCc1nc2ccc(C3CCN(CC(=O)N4CC(O)C4)CC3)nn2c1N(C)c1nccc(-c2ccc(F)cc2)n1 [Cpd 215, 2-(4-(2-ethyl-3-((4-(4-fluorophenyl)pyrimidin-2-yl)(methyl)amino)imidazo[1,2-b]pyridazin-6-yl)piperidin-1-yl)-1-(3-hydroxyazetidin-1-yl)ethanone] | 0.01 to 25 nM | 100 to 500 nM |
| CCc1nc2ccc(N3CCC(N)CC3)nn2c1N(C)c1nc(-c2ccc(F)cc2)cs1 [Cpd 82, N-(6-(4-aminopiperidin-1-yl)-2-ethylimidazo[1,2-b]pyridazin-3-yl)-4-(4-fluorophenyl)-N-methylthiazol-2-amine] | 0.01 to 25 nM | > 1000 nM |
| CCc1nc2ccc(N3CCCC(O)C3)nn2c1N(C)c1nc(-c2ccc(F)cc2)cs1 (centres unmarked) [Cpd 91, 1-(2-ethyl-3-((4-(4-fluorophenyl)thiazol-2-yl)(methyl)amino)imidazo[1,2-b]pyridazin-6-yl)piperidin-3-ol] | 25 to 50 nM | > 1000 nM |
| CCc1nc2ccc(N3CCN(CC(=O)N4CCCC4)[C@H](CO)C3)nn2c1N(C)c1nc(-c2ccc(F)cc2)cs1 [Compound 64, (S)-2-(4-(2-ethyl-3-((4-(4-fluorophenyl)thiazol-2-yl)(methyl)amino)imidazo[1,2-b]pyridazin-6-yl)-2-(hydroxymethyl)piperazin-1-yl)-1-(pyrrolidin-1-yl)ethanone] | 0.01 to 25 nM | 100 to 500 nM |
| CCc1nc2ccc(N3CCCC(CN)C3)nn2c1N(C)c1nc(-c2ccc(F)cc2)cs1 (centres unmarked) [Cpd 101, N-(6-(3-(aminomethyl)piperidin-1-yl)-2-ethylimidazo[1,2-b]pyridazin-3-yl)-4-(4-fluorophenyl)-N-methylthiazol-2-amine] | 25 to 50 nM | > 1000 nM |
| CCc1nc2ccc(N3CCC(NC(=O)OC(C)(C)C)CC3)nn2c1N(C)c1nc(-c2ccc(F)cc2)cs1 [Cpd 81, tert-butyl 1-(2-ethyl-3-((4-(4-fluorophenyl)thiazol-2-yl)(methyl)amino)imidazo[1,2-b]pyridazin-6-yl)piperidin-4-ylcarbamate] | 0.01 to 25 nM | > 1000 nM |
| CCOC(=O)C1CCN(c2ccc3nc(CC)c(N(C)c4nc(-c5ccc(F)cc5)cs4)n3n2)CC1 [Compound 95, ethyl 1-(2-ethyl-3-((4-(4-fluorophenyl)thiazol-2-yl)(methyl)amino)imidazo[1,2-b]pyridazin-6-yl)piperidine-4-carboxylate] | 0.01 to 25 nM | > 1000 nM |
| CCc1nc2ccc(N3CCC(N4CCN(CCCO)CC4)C3)nn2c1N(C)c1nc(-c2ccc(F)cc2)cs1 (centres unmarked) [Cpd 145, 3-(4-(1-(2-ethyl-3-((4-(4-fluorophenyl)thiazol-2-yl)(methyl)amino)imidazo[1,2-b]pyridazin-6-yl)pyrrolidin-3-yl)piperazin-1-yl)propan-1-ol] | 0.01 to 25 nM | 500 to 1000 nM |
| CCc1nc2ccc(N3CCC(N4CCOCC4)C3)nn2c1N(C)c1nc(-c2ccc(F)cc2)cs1 (centres unmarked) [Cpd 147, N-(2-ethyl-6-(3-morpholino-pyrrolidin-1-yl)imidazo[1,2-b]pyridazin-3-yl)-4-(4-fluorophenyl)-N-methylthiazol-2-amine] | 0.01 to 25 nM | 100 to 500 nM |
| CCc1nc2ccc(N3CCCN(C(C)=O)CC3)nn2c1N(C)c1nc(-c2ccc(F)cc2)cs1 [Cpd 115, 1-(4-(2-ethyl-3-((4-(4-fluorophenyl)thiazol-2-yl)(methyl)amino)imidazo[1,2-b]pyridazin-6-yl)-1,4-diazepan-1-yl)ethanone] | 0.01 to 25 nM | > 1000 nM |
| CCc1nc2ccc(N3CCCC3CO)nn2c1N(C)c1nc(-c2ccc(F)cc2)cs1 (centres unmarked) [Cpd 142, (1-(2-ethyl-3-((4-(4-fluorophenyl)thiazol-2-yl)(methyl)amino)imidazo[1,2-b]pyridazin-6-yl)pyrrolidin-2-yl)methanol] | 0.01 to 25 nM | > 1000 nM |
| CCc1nc2ccc(N3CC4CN(S(C)(=O)=O)CC4C3)nn2c1N(C)c1nc(-c2ccc(F)cc2)cs1 (centres unmarked) [Compound 123, N-(2-ethyl-6-(5-(methylsulfonyl)hexahydropyrrolo[3,4-c]pyrrol-2(1H)-yl)imidazo[1,2-b]pyridazin-3-yl)-4-(4-fluorophenyl)-N-methylthiazol-2-amine] | 0.01 to 25 nM | > 1000 nM |
| CN(c1nc(-c2ccc(F)cc2)cs1)c1c(CC#N)nc2ccc(C3=CCN(S(C)(=O)=O)CC3)nn12 [Compound 196, 2-(3-((4-(4-fluorophenyl)thiazol-2-yl)(methyl)amino)-6-(1-(methylsulfonyl)-1,2,3,6-tetrahydropyridin-4-yl)imidazo[1,2-b]pyridazin-2-yl)acetonitrile] | 0.01 to 25 nM | > 1000 nM |
| CCc1nc2ccc(N3CCN(CC(=O)N4CC(O)C4)CC3)nn2c1N(C)c1nc(-c2ccc(F)cc2)c(C#N)s1 [Cpd 27, 2-((2-ethyl-6-(4-(2-(3-hydroxyazetidin-1-yl)-2-oxoethyl)piperazin-1-yl)imidazo[1,2-b]pyridazin-3-yl)(methyl)amino)-4-(4-fluorophenyl) thiazole-5-carbonitrile] | 0.01 to 25 nM | 0.01 to 100 nM |
| CCc1nc2ccc(N3CCN(S(=O)(=O)CC)CC3)nn2c1N(C)c1nc(-c2ccc(F)cc2)cs1 [Cpd 71, N-(2-ethyl-6-(4-(ethylsulfonyl)piperazin-1-yl)imidazo[1,2-b]pyridazin-3-yl)-4-(4-fluorophenyl)-N-methylthiazol-2-amine] | 0.01 to 25 nM | > 1000 nM |
